Source: ChEMBL document CHEMBL1201862, “PubChem BioAssay data set” (2004)
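Where inhibition never reached the appropriate level, the endpoint shown equals the highest concentration tested. Otherwise, values were interpolated linearly from a five-concentration, 48-hour dose response in 96-well plates. GI50 marks 50% less growth.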 Calls of active or inactive are those of the source. No stated cut-off is given here; in the data, active = GI50 up to about 1.1 µM and inactive = higher. Non-standard residues stand in square brackets, D forms with d. Residues, ends and D or L forms follow the SMILES beside them. ξ: configuration not given here. *: point of attachment. ξHyp = O=C(O)C1CC(O)CN1; Cbz = O=C(OCc1ccccc1)*

Assays:
Assay in all cases: DTP human tumour cell line panel, 48 h
SNB-19 = tested on: SNB-19
786-0 = tested on: 786-0
HCT-15 = tested on: HCT-15
HL-60 = tested on: HL-60
Malme-3M = tested on: Malme-3M
A549 = tested on: A549
OVCAR-5 = tested on: OVCAR-5
UACC-62 = tested on: UACC-62
SK-MEL-2 = tested on: SK-MEL-2
U-251 = tested on: U-251
HCT-116 = tested on: HCT-116
SF-295 = tested on: SF-295
NCI-H226 = tested on: NCI-H226
CAKI-1 = tested on: CAKI-1
SF-539 = tested on: SF-539
NCI-H460 = tested on: NCI-H460
HCC 2998 = tested on: HCC 2998
SF-268 = tested on: SF-268
HOP-62 = tested on: HOP-62

SMILES	GI50 (SNB-19)	GI50 (786-0)	GI50 (HCT-15) [µM]	GI50 (HL-60)	GI50 (Malme-3M)	GI50 (A549)	GI50 (OVCAR-5)	GI50 (UACC-62)	GI50 (SK-MEL-2)	GI50 (U-251)	GI50 (HCT-116)	GI50 (SF-295)	GI50 (NCI-H226)	GI50 (CAKI-1)	GI50 (SF-539)	GI50 (NCI-H460)	GI50 (HCC 2998)	GI50 (SF-268)	GI50 (HOP-62)
C/C(CC(O)(C(F)(F)Cl)C(F)(F)Cl)=N\Nc1ccccc1	36.9 µM (inactive)	41.1 µM (inactive)	32.1	22.5 µM (inactive)	32.4 µM (inactive)	37.2 µM (inactive)	> 100 µM (inactive)	43.3 µM (inactive)	21.5 µM (inactive)	28.2 µM (inactive)	34.5 µM (inactive)	42.3 µM (inactive)	25.2 µM (inactive)	22.2 µM (inactive)	32.3 µM (inactive)	29.7 µM (inactive)			
CC(=O)CC(=O)N1CCSC1=S	> 10 µM (inactive)	> 10 µM (inactive)	> 10	> 10 µM (inactive)	> 10 µM (inactive)	> 10 µM (inactive)	> 10 µM (inactive)	> 10 µM (inactive)	> 10 µM (inactive)	> 10 µM (inactive)	> 10 µM (inactive)	> 10 µM (inactive)	> 10 µM (inactive)		> 10 µM (inactive)	> 10 µM (inactive)	> 10 µM (inactive)	> 10 µM (inactive)	> 10 µM (inactive)
CC(=O)Nc1oc(C)nc1C#N	> 100 µM (inactive)	> 100 µM (inactive)	> 100	> 100 µM (inactive)		> 100 µM (inactive)	> 100 µM (inactive)	> 100 µM (inactive)	> 100 µM (inactive)	> 100 µM (inactive)	> 100 µM (inactive)			> 100 µM (inactive)				> 100 µM (inactive)	> 100 µM (inactive)
COc1ccc(NC(=S)Nc2cc(C)cc(C)n2)cc1	> 100 µM (inactive)	> 100 µM (inactive)	> 100	> 100 µM (inactive)	> 100 µM (inactive)	> 100 µM (inactive)	> 100 µM (inactive)	> 100 µM (inactive)	> 100 µM (inactive)	> 100 µM (inactive)	> 100 µM (inactive)	> 100 µM (inactive)	> 100 µM (inactive)	> 100 µM (inactive)	> 100 µM (inactive)	> 100 µM (inactive)		> 100 µM (inactive)	> 100 µM (inactive)
CCNC1=C(NC(=O)c2ccc(F)cc2)C(=O)c2ccccc2C1=O	> 100 µM (inactive)	> 100 µM (inactive)	30.5	40.3 µM (inactive)	19.2 µM (inactive)	70.8 µM (inactive)	> 100 µM (inactive)	15.1 µM (inactive)			30.3 µM (inactive)	52.6 µM (inactive)	> 100 µM (inactive)		72.1 µM (inactive)	50.1 µM (inactive)	34.8 µM (inactive)	> 100 µM (inactive)	> 100 µM (inactive)
O=C(Cn1c2ccc(Br)cc2c2nc3ccccc3nc21)N/N=C/c1ccccc1	79.3 µM (inactive)	12.3 µM (inactive)				> 100 µM (inactive)	> 100 µM (inactive)	72.9 µM (inactive)	83.6 µM (inactive)	85.7 µM (inactive)		16.3 µM (inactive)	> 100 µM (inactive)	> 100 µM (inactive)	12.9 µM (inactive)			87.3 µM (inactive)	19.1 µM (inactive)
CN(C)/C=N/[C@@H](C(=O)O)c1ccccc1	> 100 µM (inactive)	> 100 µM (inactive)	> 100	> 100 µM (inactive)	> 100 µM (inactive)	> 100 µM (inactive)	> 100 µM (inactive)	> 100 µM (inactive)		> 100 µM (inactive)	> 100 µM (inactive)	> 100 µM (inactive)	> 100 µM (inactive)			> 100 µM (inactive)	> 100 µM (inactive)	> 100 µM (inactive)	> 100 µM (inactive)
CC12OC3(C(O)C1O)C(C(=O)O[C@H]3CO[Si](C)(C)C(C)(C)C)C2S(=O)(=O)c1ccccc1 (stereo not given in full)	40 µM (inactive)	71.1 µM (inactive)	33.7	25.9 µM (inactive)		45 µM (inactive)	> 100 µM (inactive)	16.1 µM (inactive)	88.7 µM (inactive)	86.3 µM (inactive)	61.5 µM (inactive)	43.1 µM (inactive)	5.21 µM (inactive)		58.1 µM (inactive)	44.7 µM (inactive)		47.4 µM (inactive)	> 100 µM (inactive)
CC1CCCc2c(C#N)c(N)nc(-c3ccc(Cl)cc3)c21 (stereo not given)	39.4 µM (inactive)	15.1 µM (inactive)	11.7	18.1 µM (inactive)	18.7 µM (inactive)		15.6 µM (inactive)	15.8 µM (inactive)	15.6 µM (inactive)	22.2 µM (inactive)	20.7 µM (inactive)	18.3 µM (inactive)	14.5 µM (inactive)	68.7 µM (inactive)	14.5 µM (inactive)	22.8 µM (inactive)		31.1 µM (inactive)	5.73 µM (inactive)
CCCCCCN1C(=O)CC(=O)N(CCCCCC)S1(=O)=O	41.9 µM (inactive)	18.5 µM (inactive)		24.8 µM (inactive)	23.5 µM (inactive)	35.2 µM (inactive)	19.8 µM (inactive)	17.3 µM (inactive)	12.7 µM (inactive)	17.6 µM (inactive)	29.6 µM (inactive)	18.1 µM (inactive)	26.6 µM (inactive)	22 µM (inactive)	19.8 µM (inactive)	31.5 µM (inactive)		17.7 µM (inactive)	18.9 µM (inactive)
C[n+]1c2ccccc2c(C(=O)NC(CCCNC(=N)N)C(=O)O)c2ccccc21 (stereo not given)	> 100 µM (inactive)	> 100 µM (inactive)	> 100		> 100 µM (inactive)	> 100 µM (inactive)	> 100 µM (inactive)	> 100 µM (inactive)	> 100 µM (inactive)	> 100 µM (inactive)	> 100 µM (inactive)	> 100 µM (inactive)			> 100 µM (inactive)	> 100 µM (inactive)	> 100 µM (inactive)	> 100 µM (inactive)	> 100 µM (inactive)
Cc1ccc(Cc2cc(N3CCN(c4cccc(Cl)c4)CC3)nnc2C)cc1	> 100 µM (inactive)	45.2 µM (inactive)	63.8			43 µM (inactive)	> 100 µM (inactive)	> 100 µM (inactive)	96.2 µM (inactive)	32.7 µM (inactive)	22.5 µM (inactive)	42.9 µM (inactive)		> 100 µM (inactive)	38.1 µM (inactive)	20.7 µM (inactive)		> 100 µM (inactive)	> 100 µM (inactive)
CCSCCCN(CCCSCC)CCCSCC	> 100 µM (inactive)	> 100 µM (inactive)	> 100	80.9 µM (inactive)		> 100 µM (inactive)	> 100 µM (inactive)	> 100 µM (inactive)		> 100 µM (inactive)	> 100 µM (inactive)	> 100 µM (inactive)			> 100 µM (inactive)	> 100 µM (inactive)	> 100 µM (inactive)	> 100 µM (inactive)	> 100 µM (inactive)
NC(=O)CNC(=O)C1CC(O)CN1C(=O)OCc1ccccc1 (stereo not given) (Cbz-[ξHyp]-Gly-NH2)	> 100 µM (inactive)	> 100 µM (inactive)	> 100	> 100 µM (inactive)	> 100 µM (inactive)	> 100 µM (inactive)	> 100 µM (inactive)	> 100 µM (inactive)	> 100 µM (inactive)	> 100 µM (inactive)	> 100 µM (inactive)	> 100 µM (inactive)	> 100 µM (inactive)			> 100 µM (inactive)	> 100 µM (inactive)	74.6 µM (inactive)	> 100 µM (inactive)
O=C(OC1C2OC(=O)c3cc(O)c(O)c(O)c3Oc3cc4c(c(O)c3O)-c3c(cc(O)c(O)c3O)C(=O)OCC3OC(O)C(OC(=O)c5cc(O)c(O)c(O)c5Oc5cc6c(c(O)c5O)-c5c(cc(O)c(O)c5O)C(=O)OC1C(COC6=O)OC2O)C(OC(=O)c1cc(O)c(O)c(O)c1)C3OC4=O)c1cc(O)c(O)c(O)c1 (stereo not given)	17.6 µM (inactive)	21 µM (inactive)		16.2 µM (inactive)	> 100 µM (inactive)	10.8 µM (inactive)	40.1 µM (inactive)	28.4 µM (inactive)			16.4 µM (inactive)	14.7 µM (inactive)	22.4 µM (inactive)	38.3 µM (inactive)	24.4 µM (inactive)	3.52 µM (inactive)		26.4 µM (inactive)	23.4 µM (inactive)
COc1ccc(C2NCCc3c2[nH]c2ccccc32)cc1 (stereo not given)	> 100 µM (inactive)	83.8 µM (inactive)	> 100	> 100 µM (inactive)	27 µM (inactive)	48.2 µM (inactive)	> 100 µM (inactive)	> 100 µM (inactive)		> 100 µM (inactive)	51.5 µM (inactive)	> 100 µM (inactive)	> 100 µM (inactive)		> 100 µM (inactive)	88.9 µM (inactive)	24.7 µM (inactive)	> 100 µM (inactive)	21.2 µM (inactive)
CCn1c(=O)c2c(=O)[nH][nH]c2c2ccccc21	> 100 µM (inactive)	> 100 µM (inactive)	> 100	> 100 µM (inactive)	> 100 µM (inactive)	> 100 µM (inactive)	> 100 µM (inactive)			> 100 µM (inactive)	> 100 µM (inactive)	> 100 µM (inactive)	> 100 µM (inactive)		> 100 µM (inactive)	> 100 µM (inactive)	> 100 µM (inactive)		> 100 µM (inactive)
